Test results taken from US12077503B2, “Substituted cyclic amides and their use as herbicides” (FMC CORPORATION, priority 2015, dated 2024).

Tests used:
Format in all cases: in vivo
[1] = test system: redroot pigweed (Amaranthus retroflexus); assay: Test G Pre-Emergence Protocol; conditions: Amaranthus retroflexus, pre-emergence, 312 h, evaluated after 13 days; for pest or weed control at 15.625 g/ha: 15.625 g ai/ha; for pest or weed control at 15.625 g/ha / pest or weed control at 250 g/ha: read-out: Pigweed, Redroot damage rating (100=total damage to plant; 0=no damage to plant); for pest or weed control at 62.5 g/ha: 62.5 g ai/ha, 100=total damage to plant, 0=no damage to plant, read-out: plant damage rating, Pigweed, Redroot; for pest or weed control at 250 g/ha: 250 g ai/ha
Procedure, shortened: (§1)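 Pots of seeds in standard soil were grown for one day in a glasshouse (24/16 °C day/night, 14 h light, 65% humidity), then sprayed with compound in acetone/water 50:50 with 0.5% Tween 20 at 15.625, 62.5 or 250 g/ha. Damage was scored after 13 days on a 0 (none) to 100 (total) scale.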

[2] = test system: barnyardgrass (Echinochloa crus-galli); assay: Test G Pre-Emergence Protocol; conditions: Echinochloa crus-galli, pre-emergence, 312 h, evaluated after 13 days; for pest or weed control at 15.625 g/ha: 15.625 g ai/ha, read-out: Barnyard grass damage rating (100=total damage to plant; 0=no damage to plant); for pest or weed control at 62.5 g/ha: 62.5 g ai/ha, 100=total damage to plant, 0=no damage to plant, read-out: plant damage rating, Barnyardgrass; for pest or weed control at 250 g/ha: 250 g ai/ha, read-out: Barnyardgrass damage rating (100=total damage to plant; 0=no damage to plant)
Procedure, shortened: as §1

[3] = test system: giant foxtail (Setaria faberi); assay: Test G Pre-Emergence Protocol; conditions: Setaria faberi, pre-emergence, 312 h, evaluated after 13 days; for pest or weed control at 15.625 g/ha: 15.625 g ai/ha; for pest or weed control at 15.625 g/ha / pest or weed control at 250 g/ha: read-out: Foxtail, Giant damage rating (100=total damage to plant; 0=no damage to plant); for pest or weed control at 62.5 g/ha: 62.5 g ai/ha, 100=total damage to plant, 0=no damage to plant, read-out: plant damage rating, Foxtail, Giant; for pest or weed control at 250 g/ha: 250 g ai/ha
Procedure, shortened: as §1

[4] = test system: velvetleaf (Abutilon theophrasti); assay: Test G Pre-Emergence Protocol; conditions: Abutilon theophrasti, pre-emergence, 312 h, evaluated after 13 days; for pest or weed control at 15.625 g/ha: 15.625 g ai/ha; for pest or weed control at 15.625 g/ha / pest or weed control at 250 g/ha: read-out: Velvetleaf damage rating (100=total damage to plant; 0=no damage to plant); for pest or weed control at 62.5 g/ha: 62.5 g ai/ha, 100=total damage to plant, 0=no damage to plant, read-out: plant damage rating, Velvetleaf; for pest or weed control at 250 g/ha: 250 g ai/ha
Procedure, shortened: as §1

[5] = test system: corn (Zea mays); assay: Test G Pre-Emergence Protocol; conditions: Zea mays, pre-emergence, 312 h, evaluated after 13 days; for plant injury at 15.625 g/ha: 15.625 g ai/ha; for plant injury at 15.625 g/ha / plant injury at 250 g/ha: read-out: Corn damage rating (100=total damage to plant; 0=no damage to plant); for plant injury at 62.5 g/ha: 62.5 g ai/ha, 100=total damage to plant, 0=no damage to plant, read-out: plant damage rating, Corn; for plant injury at 250 g/ha: 250 g ai/ha
Procedure, shortened: as §1

[6] = test system: ivy-leaved morning glory (Ipomoea hederacea); assay: Test G Pre-Emergence Protocol; conditions: Ipomoea, pre-emergence, 312 h, evaluated after 13 days; for pest or weed control at 15.625 g/ha: 15.625 g ai/ha, read-out: Morning-glory, Ivy-leaved damage rating (100=total damage to plant; 0=no damage to plant); for pest or weed control at 62.5 g/ha: 62.5 g ai/ha, 100=total damage to plant, 0=no damage to plant, read-out: plant damage rating, Morningglory, Ivy-leaved; for pest or weed control at 250 g/ha: 250 g ai/ha, read-out: Morningglory, Ivy-leaved damage rating (100=total damage to plant; 0=no damage to plant)
Procedure, shortened: as §1

[7] = test system: redroot pigweed (Amaranthus retroflexus); assay: Test G Post-Emergence Protocol; conditions: Amaranthus retroflexus, post-emergence, 312 h; for pest or weed control at 15.625 g/ha: 15.625 g ai/ha, evaluated after 13 days (100=total damage to plant; 0=no damage to plant), read-out: Pigweed, Redroot damage rating; for pest or weed control at 62.5 g/ha: 62.5 g ai/ha, read-out: Pigweed, Redroot damage rating (100=total damage to plant; 0=no damage to plant); for pest or weed control at 62.5 g/ha / pest or weed control at 250 g/ha: evaluated after 13 days; for pest or weed control at 250 g/ha: 250 g ai/ha, read-out: damage to plant, Pigweed, Redroot (100=total damage to plant; 0=no damage to plant)
Procedure, shortened: (§2)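 Scores run 0 (no damage) to 100 (total damage) and were taken 13 days after spraying. Plants had been raised in pots for 8 days under glasshouse control (24/16 °C, 14 h photoperiod, 65% humidity) and then treated at 15.625, 62.5 or 250 g/ha.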

[8] = test system: barnyardgrass (Echinochloa crus-galli); assay: Test G Post-Emergence Protocol; conditions: Echinochloa crus-galli, post-emergence, 312 h; for pest or weed control at 15.625 g/ha: 15.625 g ai/ha, evaluated after 13 days (100=total damage to plant; 0=no damage to plant), read-out: Barnyardgrass damage rating; for pest or weed control at 62.5 g/ha: 62.5 g ai/ha, read-out: Barnyardgrass damage rating (100=total damage to plant; 0=no damage to plant); for pest or weed control at 62.5 g/ha / pest or weed control at 250 g/ha: evaluated after 13 days; for pest or weed control at 250 g/ha: 250 g ai/ha, read-out: damage to plant, Barnyardgrass (100=total damage to plant; 0=no damage to plant)
Procedure, shortened: as §2

[9] = test system: giant foxtail (Setaria faberi); assay: Test G Post-Emergence Protocol; conditions: Setaria faberi, post-emergence, 312 h; for pest or weed control at 15.625 g/ha: 15.625 g ai/ha, evaluated after 13 days (100=total damage to plant; 0=no damage to plant), read-out: Foxtail, Giant damage rating; for pest or weed control at 62.5 g/ha: 62.5 g ai/ha, read-out: Foxtail, Giant damage rating (100=total damage to plant; 0=no damage to plant); for pest or weed control at 62.5 g/ha / pest or weed control at 250 g/ha: evaluated after 13 days; for pest or weed control at 250 g/ha: 250 g ai/ha, read-out: damage to plant, Foxtail, Giant (100=total damage to plant; 0=no damage to plant)
Procedure, shortened: as §2

[10] = test system: velvetleaf (Abutilon theophrasti); assay: Test G Post-Emergence Protocol; conditions: Abutilon theophrasti, post-emergence, 312 h; for pest or weed control at 15.625 g/ha: 15.625 g ai/ha, evaluated after 13 days (100=total damage to plant; 0=no damage to plant), read-out: Velvetleaf damage rating; for pest or weed control at 62.5 g/ha: 62.5 g ai/ha, read-out: Velvetleaf damage rating (100=total damage to plant; 0=no damage to plant); for pest or weed control at 62.5 g/ha / pest or weed control at 250 g/ha: evaluated after 13 days; for pest or weed control at 250 g/ha: 250 g ai/ha, read-out: damage to plant, Velvetleaf (100=total damage to plant; 0=no damage to plant)
Procedure, shortened: as §2

[11] = test system: corn (Zea mays); assay: Test G Post-Emergence Protocol; conditions: Zea mays, post-emergence, 312 h; for plant injury at 15.625 g/ha: 15.625 g ai/ha, evaluated after 13 days (100=total damage to plant; 0=no damage to plant), read-out: Corn damage rating; for plant injury at 62.5 g/ha: 62.5 g ai/ha, read-out: Corn damage rating (100=total damage to plant; 0=no damage to plant); for plant injury at 62.5 g/ha / plant injury at 250 g/ha: evaluated after 13 days; for plant injury at 250 g/ha: 250 g ai/ha, read-out: damage to plant, Corn (100=total damage to plant; 0=no damage to plant)
Procedure, shortened: as §2

[12] = test system: ivy-leaved morning glory (Ipomoea hederacea); assay: Test G Post-Emergence Protocol; conditions: Ipomoea, post-emergence, 312 h; for pest or weed control at 15.625 g/ha: 15.625 g ai/ha, evaluated after 13 days (100=total damage to plant; 0=no damage to plant), read-out: Morningglory, Ivy-leaved damage rating; for pest or weed control at 62.5 g/ha: 62.5 g ai/ha, read-out: Morningglory, Ivy-leaved damage rating (100=total damage to plant; 0=no damage to plant); for pest or weed control at 62.5 g/ha / pest or weed control at 250 g/ha: evaluated after 13 days; for pest or weed control at 250 g/ha: 250 g ai/ha, read-out: damage to plant, Morningglory, Ivy-leaved (100=total damage to plant; 0=no damage to plant)
Procedure, shortened: as §2

SMILES: CN1C[C@@H](c2ccc(C(F)(F)F)cc2)[C@H](C(=O)Nc2cn(C)nn2)C1=O (racemic) [Compound 1527]
- pest or weed control at 15.625 g/ha [1]: 0%
- pest or weed control at 62.5 g/ha [1]: 0%
- pest or weed control at 250 g/ha [1]: 0%
- pest or weed control at 15.625 g/ha [2]: 0%
- pest or weed control at 62.5 g/ha [2]: 0%
- pest or weed control at 250 g/ha [2]: 0%
- pest or weed control at 15.625 g/ha [3]: 0%
- pest or weed control at 62.5 g/ha [3]: 0%
- pest or weed control at 250 g/ha [3]: 0%
- pest or weed control at 15.625 g/ha [4]: 0%
- pest or weed control at 62.5 g/ha [4]: 0%
- pest or weed control at 250 g/ha [4]: 0%
- plant injury at 15.625 g/ha [5]: 0%
- plant injury at 62.5 g/ha [5]: 0%
- plant injury at 250 g/ha [5]: 0%
- pest or weed control at 15.625 g/ha [6]: 0%
- pest or weed control at 62.5 g/ha [6]: 0%
- pest or weed control at 250 g/ha [6]: 0%
- pest or weed control at 15.625 g/ha [7]: 0%
- pest or weed control at 62.5 g/ha [7]: 0%
- pest or weed control at 250 g/ha [7]: 0%
- pest or weed control at 15.625 g/ha [8]: 0%
- pest or weed control at 62.5 g/ha [8]: 0%
- pest or weed control at 250 g/ha [8]: 0%
- pest or weed control at 15.625 g/ha [9]: 0%
- pest or weed control at 62.5 g/ha [9]: 0%
- pest or weed control at 250 g/ha [9]: 0%
- pest or weed control at 15.625 g/ha [10]: 0%
- pest or weed control at 62.5 g/ha [10]: 0%
- pest or weed control at 250 g/ha [10]: 0%
- plant injury at 15.625 g/ha [11]: 10%
- plant injury at 62.5 g/ha [11]: 10%
- plant injury at 250 g/ha [11]: 10%
- pest or weed control at 15.625 g/ha [12]: 0%
- pest or weed control at 62.5 g/ha [12]: 0%
- pest or weed control at 250 g/ha [12]: 0%

SMILES: CN1C[C@@H](c2ccc(C(F)(F)F)cc2)[C@H](C(=O)Nc2cnn(C)n2)C1=O (racemic) [Compound 1531]
- pest or weed control at 15.625 g/ha [1]: 0%
- pest or weed control at 62.5 g/ha [1]: 0%
- pest or weed control at 250 g/ha [1]: 0%
- pest or weed control at 15.625 g/ha [2]: 0%
- pest or weed control at 62.5 g/ha [2]: 0%
- pest or weed control at 250 g/ha [2]: 0%
- pest or weed control at 15.625 g/ha [3]: 0%
- pest or weed control at 62.5 g/ha [3]: 0%
- pest or weed control at 250 g/ha [3]: 0%
- pest or weed control at 15.625 g/ha [4]: 0%
- pest or weed control at 62.5 g/ha [4]: 0%
- pest or weed control at 250 g/ha [4]: 0%
- plant injury at 15.625 g/ha [5]: 0%
- plant injury at 62.5 g/ha [5]: 0%
- plant injury at 250 g/ha [5]: 0%
- pest or weed control at 15.625 g/ha [6]: 0%
- pest or weed control at 62.5 g/ha [6]: 0%
- pest or weed control at 250 g/ha [6]: 0%
- pest or weed control at 15.625 g/ha [7]: 0%
- pest or weed control at 62.5 g/ha [7]: 0%
- pest or weed control at 250 g/ha [7]: 0%
- pest or weed control at 15.625 g/ha [8]: 0%
- pest or weed control at 62.5 g/ha [8]: 0%
- pest or weed control at 250 g/ha [8]: 0%
- pest or weed control at 15.625 g/ha [9]: 0%
- pest or weed control at 62.5 g/ha [9]: 0%
- pest or weed control at 250 g/ha [9]: 0%
- pest or weed control at 15.625 g/ha [10]: 0%
- pest or weed control at 62.5 g/ha [10]: 0%
- pest or weed control at 250 g/ha [10]: 0%
- plant injury at 15.625 g/ha [11]: 0%
- plant injury at 62.5 g/ha [11]: 0%
- plant injury at 250 g/ha [11]: 10%
- pest or weed control at 15.625 g/ha [12]: 0%
- pest or weed control at 62.5 g/ha [12]: 0%
- pest or weed control at 250 g/ha [12]: 0%
